{
  "source": "ChEMBL document CHEMBL1128817",
  "about": "“Synthesis of bisindolylmaleimide macrocycles” (Bioorg Med Chem Lett, 1995)",
  "key": {"Protein kinase C (PKC)": {"biological_target": "Protein kinase C (PKC)", "test": "Inhibition of rat brain PKC"}, "[1]": {"biological_target": "Protein kinase C beta type (Homo sapiens, UniProt P05771)", "sequence (P05771 whole entry)": "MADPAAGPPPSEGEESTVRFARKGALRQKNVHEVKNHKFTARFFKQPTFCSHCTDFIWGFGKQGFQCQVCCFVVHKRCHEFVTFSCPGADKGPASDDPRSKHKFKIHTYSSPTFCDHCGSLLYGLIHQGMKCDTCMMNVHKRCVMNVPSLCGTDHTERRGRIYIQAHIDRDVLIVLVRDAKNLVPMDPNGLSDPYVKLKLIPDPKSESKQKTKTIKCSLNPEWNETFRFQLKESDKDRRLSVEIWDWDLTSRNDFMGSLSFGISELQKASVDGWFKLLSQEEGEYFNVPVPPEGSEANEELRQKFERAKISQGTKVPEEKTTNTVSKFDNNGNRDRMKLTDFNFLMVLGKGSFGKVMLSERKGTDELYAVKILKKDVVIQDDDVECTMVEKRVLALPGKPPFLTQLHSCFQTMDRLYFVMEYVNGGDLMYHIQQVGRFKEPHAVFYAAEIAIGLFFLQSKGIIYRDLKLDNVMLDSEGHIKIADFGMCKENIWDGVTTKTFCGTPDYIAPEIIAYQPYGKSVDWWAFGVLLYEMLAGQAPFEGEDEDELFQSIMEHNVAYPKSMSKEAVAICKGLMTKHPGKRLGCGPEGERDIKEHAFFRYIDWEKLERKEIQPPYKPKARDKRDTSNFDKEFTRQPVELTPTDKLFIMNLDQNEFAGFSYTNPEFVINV", "test": "Inhibition of Protein kinase C beta 2"}, "[2]": {"test": "Selectivity ratio of IC50 of PKCalpha to PKCbeta II"}, "[3]": {"test": "Selectivity ratio of IC50 of PKA to PKC"}},
  "data": [
    {"smiles": "O=C1NC(=O)C2=C1c1cn(c3ccccc13)CCCOC(CO)CCn1cc2c2ccccc21", "note": "(centres undefined)", "values": [
      {"measurement": "IC50", "setting": "Protein kinase C (PKC)", "result": 6400, "unit": "nM"},
      {"measurement": "IC50", "setting": "[1]", "result": 270, "unit": "nM"},
      {"measurement": "Ratio", "setting": "[2]", "result": 25},
      {"measurement": "Ratio", "setting": "[3]", "result": "> 10000"}
    ]}
  ]
}
